Assay results taken from patent US20050054536A1, “Beta-amino-alpha-cyanoacrylates and their use as herbicides” (priority 2001, published 2005).

Legend:
Amaranthus retroflexus = assay: greenhouse experiment, pre-emergence treatment, herbicidal activity; assay type: in vivo; settings: application rate 1.0 kg/ha
From the text: (§1) The seeds of the test plants were sown separately for each species. For the pre-emergence treatment, directly after sowing the active compounds, which had been suspended or emulsified in water, were applied by means of finely distributing nozzles. The containers were irrigated gently to promote germination and growth and subsequently covered with transparent plastic hoods until the plant had rooted. This cover caused uniform germination of the test plants, unless this was adversely affected by the active compounds. The application rate for a pre-emergence treatment was 0.5 or 1.0 kg of a.s. (active substance)/ha. Depending on the species, the plants were kept at from 10 to 25° C. or from 20 to 35° C. The test period extended over 2 to 4 weeks. During this time, the plants were tended, and their response to the individual treatments was evaluated. Evaluation was carried out using a scale from 0 to 100. 100 means no emergence of the plants, or complete destruction of at least the above-ground parts, and 0 means no damage, or normal course of growth. The plants used in the greenhouse experiments were of the following species: [table]

Setaria faberii [1] = assay: as above; assay type: in vivo; settings: application rate 1.0 kg/ha
From the text: as §1

Pharbitis purpurea = assay: greenhouse experiment, post-emergence treatment, herbicidal activity; assay type: in vivo; settings: application rate 1.0 kg/ha
From the text: (§2) The seeds of the test plants were sown separately for each species. For the post-emergence treatment, the test plants were first grown to a height of from 3 to 15 cm, depending on the plant habit, and only then treated with the active compounds which had been suspended or emulsified in water. The test plants were for this purpose either sown directly and grown in the same containers, or they were first grown separately as seedlings and transplanted into the test containers a few days prior to treatment. The application rate for the post-emergence treatment was 0.5 or 1.0 kg of a.s. (active substance)/ha. Depending on the species, the plants were kept at from 10 to 25° C. or from 20 to 35° C. The test period extended over 2 to 4 weeks. During this time, the plants were tended, and their response to the individual treatments was evaluated. Evaluation was carried out using a scale from 0 to 100. 100 means no emergence of the plants, or complete destruction of at least the above-ground parts, and 0 means no damage, or normal course of growth. The plants used in the greenhouse experiments were of the following species: [table]

Setaria faberii [2] = assay: as above; assay type: in vivo; settings: application rate 1.0 kg/ha
From the text: as §2

Digitaria sanguinalis = assay: greenhouse experiment, pre-emergence treatment, herbicidal activity; assay type: in vivo; settings: application rate 1.0 kg/ha
From the text: as §1

Structure (SMILES) | effect on the harmful plant Setaria faberii, pre-emergence method (Setaria faberii [1]) | post-emergence activity against the undesirable plant Pharbitis purpurea (Pharbitis purpurea) | melting point | further results
CCOC(=O)/C(C#N)=C(\N)C(CC)CC [Example 2.1, Ethyl (2Z)-3-amino-2-cyano-4-ethyl-2-hexenoate] | very good | very good | 85 to 87 °C | effect on the harmful plant Amaranthus retroflexus, pre-emergence method (Amaranthus retroflexus): very good; post-emergence activity against the undesirable plant Setaria faberii (Setaria faberii [2]): very good
CCCOC(=O)/C(C#N)=C(\N)C(CC)CC [Example 2.2, n-Propyl (2Z)-3-amino-2-cyano-4-ethyl-2-hexenoate] | very good | very good | 84 °C | effect on the harmful plant Digitaria sanguinalis, pre-emergence method (Digitaria sanguinalis): very good
CCCOC(=O)/C(C#N)=C(\N)C(CC)CSC (stereo not shown) [Example 2.3, n-Propyl (2Z)-3-amino-2-cyano-4-[(methylsulfanyl)methyl]-2-hexenoate] | – | – | 78 °C | –
CCC(CC)/C(N)=C(\C#N)C(=O)OC [Example 2.5] | – | – | 65 °C | –
CCOC(=O)/C(C#N)=C(\N)C(C)CC (stereo not shown) [Example 2.6] | – | – | 102 to 103 °C | –
CCOC(=O)/C(C#N)=C(\N)C(C)(C)CC [Example 2.8] | – | – | 65 to 67 °C | –
CCOC(=O)/C(C#N)=C(\N)C(C)(C)Cl [Example 2.9] | – | – | 56 °C | –
CCOC(=O)/C(C#N)=C(\N)C(C)(C)Br [Example 2.10] | – | – | 46 °C | –
CCC(CC)/C(N)=C(\C#N)C(=O)OCCOC [Example 2.22] | very good | very good | 70 °C | –
CCOCCOC(=O)/C(C#N)=C(\N)C(CC)CC [Example 2.23] | – | – | 70 °C | –
